Among the data in PubChem BioAssay (NCI) are GI50 and TGI values, retold here.

Test systems include UACC-62 melanoma; HOP-62 NSCLC; COLO 205 colon; OVCAR-8 ovarian; MALME-3M melanoma; ACHN renal; OVCAR-4 ovarian; DU-145 prostate; UACC-257 melanoma; IGROV1 ovarian.
Assay in all cases: NCI anticancer screen, dose series, 48 h

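Five concentrations, 48 hours, 96-well plates. Abbreviation: GI50, concentration required for 50% inhibition of growth. TGI is the concentration that stops growth completely.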 Some results are limits rather than exact numbers.

For the compound `Cc1cc(N(CCNc2ccnc3cc(Cl)ccc23)Cc2ccco2)nc(Cl)n1`, the GI50 with UACC-62 melanoma is 1.78 µM; in the assay with HOP-62 NSCLC, 1.68 µM; in the assay on COLO 205 colon, 1.71 µM; with OVCAR-8 ovarian it was 2.06 µM; with MALME-3M melanoma, 1.78 µM; in the assay on ACHN renal, 1.65 µM. Also, the GI50 with OVCAR-4 ovarian was 1.49 µM; in the assay with DU-145 prostate, 1.99 µM; in the assay with UACC-257 melanoma, 1.9 µM. In addition, the TGI with UACC-62 melanoma was 3.38 µM; with HOP-62 NSCLC, 3.38 µM; with COLO 205 colon, 3.3 µM; in the assay on OVCAR-8 ovarian, 4.42 µM; in the assay with MALME-3M melanoma, 3.33 µM; with ACHN renal, 3.02 µM. In addition, the TGI came to 2.95 µM with OVCAR-4 ovarian, 4.15 µM in the assay with DU-145 prostate and 3.68 µM in the assay with UACC-257 melanoma.
As to `COc1ccc(Nc2c3ccccc3nc3ccccc23)cc1`, the GI50 in the assay with IGROV1 ovarian was 0.629 µM; in the assay with HOP-62 NSCLC, 1.27 µM; with COLO 205 colon, 0.52 µM; in the assay on OVCAR-8 ovarian, 1.89 µM; in the assay with MALME-3M melanoma it was 1.83 µM; in the assay on ACHN renal it was 1.28 µM. The GI50 in the assay with OVCAR-4 ovarian was 2.06 µM; in the assay with DU-145 prostate, 2.43 µM; in the assay on UACC-257 melanoma, 2.71 µM. Moreover, the TGI with IGROV1 ovarian was determined as 8.72 µM; with HOP-62 NSCLC, 14.4 µM; in the assay with COLO 205 colon, 1.85 µM; with OVCAR-8 ovarian, 16.7 µM; in the assay with MALME-3M melanoma, 9.05 µM; with ACHN renal, 5.68 µM. For the same compound, the TGI worked out at 15 µM with OVCAR-4 ovarian, 12.3 µM in the assay with DU-145 prostate and 14.4 µM in the assay on UACC-257 melanoma.
On to `CC1OC(OC2C(O[C@H]3CC[C@@]4(C)C(=CC[C@H]5[C@@H]6C[C@@H]7O[C@]8(CC[C@H](C)CN8)[C@@H](C)[C@@H]7[C@@]6(C)CC[C@@H]54)C3)OC(CO)C(O)C2OC2OC(CO)C(O)C(O)C2O)C(O)C(O)C1O` (stereo not given in full), for which the TGI amounted to 32.1 µM in the assay on UACC-62 melanoma; 39.5 µM in the assay with IGROV1 ovarian; 31.8 µM in the assay with COLO 205 colon; 31.1 µM with OVCAR-8 ovarian; 34.5 µM in the assay with MALME-3M melanoma; 31.4 µM with ACHN renal. The TGI with OVCAR-4 ovarian came to 37 µM; with DU-145 prostate, 33.6 µM; in the assay with UACC-257 melanoma it was 33 µM.
Consider `CC(C)CCN=C(N)c1ccc(N2CCN(c3ccc(C(N)=NCCC(C)C)cc3)CC2)cc1`, for which the GI50 was 16.8 µM in the assay with UACC-62 melanoma; 6.27 µM in the assay on IGROV1 ovarian; 10.4 µM in the assay on HOP-62 NSCLC; 8.9 µM in the assay with COLO 205 colon; 6.57 µM in the assay with OVCAR-8 ovarian; 56.8 µM in the assay with ACHN renal. In addition, the GI50 with OVCAR-4 ovarian is 3.4 µM; in the assay on DU-145 prostate it was 6.95 µM; with UACC-257 melanoma, 12.9 µM. Also, the TGI is 33.8 µM with UACC-62 melanoma; 40.3 µM in the assay with IGROV1 ovarian; 26.9 µM in the assay with HOP-62 NSCLC; over 100 µM with COLO 205 colon; over 100 µM in the assay on OVCAR-8 ovarian; over 100 µM in the assay with ACHN renal. Moreover, the TGI in the assay with OVCAR-4 ovarian was found to be 33.1 µM; in the assay with DU-145 prostate, 71.2 µM; in the assay with UACC-257 melanoma, 82.3 µM.
Take `COc1cc2c(cc1C)NC(=O)/C2=C\c1cccc(Oc2ccccc2)c1`: the GI50 in the assay with UACC-62 melanoma is 12.5 µM; in the assay with IGROV1 ovarian, 14.5 µM; with COLO 205 colon it was 16.6 µM; with OVCAR-8 ovarian, 25.1 µM; with MALME-3M melanoma, 26.1 µM; with ACHN renal, 17.3 µM. Moreover, the GI50 in the assay on OVCAR-4 ovarian was 14.4 µM; with DU-145 prostate it was 13.5 µM; in the assay on UACC-257 melanoma, 21.7 µM. For the same compound, the TGI in the assay with UACC-62 melanoma is 25.4 µM; with IGROV1 ovarian, 29.4 µM; with COLO 205 colon it was 33.5 µM; in the assay on OVCAR-8 ovarian, over 100 µM; in the assay on MALME-3M melanoma, 44.6 µM; in the assay on ACHN renal, 31 µM. In addition, the figures for the TGI in the assay on OVCAR-4 ovarian, in the assay on DU-145 prostate and in the assay with UACC-257 melanoma were 35.6 µM, 27 µM and 52.3 µM, respectively.
Turning to `O=C(Cn1ccnc1[N+](=O)[O-])c1ccc(F)cc1`, the TGI in the assay on UACC-62 melanoma, in the assay with IGROV1 ovarian, with HOP-62 NSCLC, in the assay on COLO 205 colon, with OVCAR-8 ovarian and in the assay on MALME-3M melanoma was over 100 µM each time. In addition, the TGI with ACHN renal, in the assay on OVCAR-4 ovarian and with UACC-257 melanoma was over 100 µM each time.
With `Cc1cccc2c(=O)c3c(sc12)c(NCCNCCO)nc1ccccc13`, the GI50 with UACC-62 melanoma was 1.63 µM; in the assay with IGROV1 ovarian it was 1.19 µM; in the assay with HOP-62 NSCLC, 1.28 µM; in the assay on COLO 205 colon, 1.56 µM; in the assay on MALME-3M melanoma, 1.65 µM; with ACHN renal it was 1.5 µM. Further, the GI50 in the assay with OVCAR-4 ovarian was 1.75 µM; with DU-145 prostate, 1.68 µM; with UACC-257 melanoma, 1.86 µM. For the same compound, the TGI in the assay on UACC-62 melanoma turned out to be 3.07 µM; in the assay with IGROV1 ovarian it was 2.65 µM; in the assay with HOP-62 NSCLC it was 2.87 µM; in the assay on COLO 205 colon it was 3.35 µM; in the assay on MALME-3M melanoma it was 3.18 µM; in the assay with ACHN renal, 2.83 µM. Moreover, the TGI with OVCAR-4 ovarian came out at 3.48 µM; in the assay on DU-145 prostate, 3.12 µM; with UACC-257 melanoma, 3.79 µM.
As for `Nc1nc(-c2ccccc2)nc2c1[n+]([O-])c1ccccc1[n+]2[O-]`, the TGI in the assay on UACC-62 melanoma, with IGROV1 ovarian, in the assay on HOP-62 NSCLC, in the assay with COLO 205 colon, in the assay with OVCAR-8 ovarian and in the assay on MALME-3M melanoma was over 100 µM in each case. The TGI in the assay with ACHN renal, in the assay with DU-145 prostate and with UACC-257 melanoma was over 100 µM in each case.
Regarding `CCCCCCCCCCCCCP(=O)(O)OCC`, the TGI in the assay with UACC-62 melanoma, with IGROV1 ovarian, in the assay on HOP-62 NSCLC, in the assay on COLO 205 colon, in the assay with OVCAR-8 ovarian and with MALME-3M melanoma was over 100 µM each time. The TGI in the assay with ACHN renal, in the assay with OVCAR-4 ovarian and with UACC-257 melanoma was over 100 µM throughout.
Take `O=[N+]([O-])c1cccc(C2ON2C2CCCCC2)c1` (stereo not given): the TGI turned out to be 48 µM in the assay with UACC-62 melanoma; 44.8 µM with IGROV1 ovarian; 81.3 µM in the assay with HOP-62 NSCLC; 32.6 µM in the assay with COLO 205 colon; 32.8 µM in the assay on OVCAR-8 ovarian; 54.6 µM with MALME-3M melanoma. Moreover, the TGI in the assay with ACHN renal was determined as 32 µM; in the assay with OVCAR-4 ovarian, 38.3 µM; with UACC-257 melanoma, 49.6 µM.
